Test system: Leukocytes isolated from normal healthy individuals
Experiment: In vitro release from leukocytes adhered to polysulfone membranes, with or without LPS
Assay type: cell-based, human
Procedure: Leukocytes were isolated from normal healthy individuals using established methods. The leukocytes (10^6 cells per well) were placed into 12-well tissue culture plates containing 14×14 mm squares of polysulfone membranes (Fresenius, Walnut Creek, Calif.) and allowed to adhere for 60 minutes at 37° C. in RPMI media. The media was removed, cells washed with PBS, and the removed supernatants were analyzed for cell release. RPMI media with citrate (Cai=0.25 mmol/L) or without citrate (Cai=0.89 mmol/L) was used to achieve the Cai levels described in Table 5 below. Each calcium condition also had media with or without lipopolysaccharide (LPS, 1 μg/mL) to activate the leukocytes.
The cells were exposed to these conditions for […] and removed from the media to assess release of lactoferrin (LF) and myeloperoxidase (MPO), proteins in exocytotic vesicles from neutrophils, and cytokines, IL-6 and IL-8, released from leukocytes. These compounds were assayed with commercially available Elisa kits (R & D Systems, Cell Sciences, and EMD BioSciences).

[1] = with LPS (1 μg/mL), citrate media Cai 0.25 mmol/L, 60 seconds
[2] = without LPS, citrate media Cai 0.25 mmol/L, 60 seconds

For O=C(O)CC(O)(CC(=O)O)C(=O)O [Citrate], the “increases in LF, MPO, IL-6, or IL-8 on LPS stimulation” value (citrate-containing media with low Cai, in contrast to normal Cai media) was “no increases”, the “IL-6 release, Stimulated” value [1] was 2.9 pg/mL/10^6 cells and the “IL-8 release, Stimulated” value [1] was 19.4 ng/mL/10^6 cells. The “Lactoferrin release, Stimulated” value [1] was 187 ng/mL/10^6 cells, the “Myeloperoxidase release, Stimulated” value [1] was 270 ng/mL/10^6 cells and the “IL-6 release, Baseline” value [2] was 3.3 pg/mL/10^6 cells. The “IL-8 release, Baseline” value [2] was 25.8 ng/mL/10^6 cells, the “Lactoferrin release, Baseline” value [2] was 221 ng/mL/10^6 cells and the “Myeloperoxidase release, Baseline” value [2] was 268 ng/mL/10^6 cells.

From patent US8425447B2, “Selective cytopheresis devices and related methods thereof” (The Regents of the University of Michigan, priority 2007, dated 2013)
